Measured values from US11779602B2, “Methods of use for CAR T cells” (ENDOCYTE, INC., priority 2018, dated 2023).

What was measured:
HOS-FRα tumor = experiment: CRS toxicity and sodium fluorescein rescue in HOS-FRα tumor-bearing mice; format: in vivo
Protocol: All animal care and use were performed according to NIH guidelines and in compliance with protocols approved by the Purdue University Animal Use and Care Committee. Female 4 to 5-week-old NOD/SCID gamma (NSG™) mice (stock number: 005557) were purchased from The Jackson Laboratory (Bar Harbor, Me.). Unless specifically indicated, all animals were maintained on a FA-deficient diet (TestDiet, St. Louis, Mo.) upon arrival and throughout the study. To establish subcutaneous xenografts, MDA-MB-231 and HOS-FRα were implanted in the right flank region at 2.5×10^6 and 1×10^6 cells per animal, respectively. For intravenous xenografts, THP1-FRβ cells were inoculated at 5×10^6 cells per animal. Subcutaneous tumors were measured 2-3 times per week with a caliper and calculated using the ellipsoidal formula (length×width^2)/2. […] All animal doses (CAR-T cells, EC17, sodium fluorescein) were given intravenously.
Depending on the CAR-T cell dose and how EC17 is administered, tumor-bearing mice receiving FITC-specific CAR-T cells can experience severe CRS and varying degrees of body weight loss. Therefore, a CRS grading system (0-5 scale) was developed to empirically assess CRS toxicity from animals' gross morphology and social behavior to allow for better timing of CRS rescue. While grades 0 and 5 indicated normal (no CRS) or death (due to severe CRS), respectively, grades 1, 2, and 3-4 were considered mild, light-to-moderate, and severe CRS (FIG. 57A). In addition, all EC17 doses were intentionally given towards the end of any given day to allow potential CRS symptoms to develop overnight. On the days immediately following each EC17 dose, animals were scored and rescue agents such as sodium fluorescein, folic acid and leucovorin were used to mitigate CRS toxicity. In this particular instance, a batch of E2 CAR-T cells with a high EGFRt+CD4/CD8 ratio (˜93:7) was given to HOS-FRα tumor-bearing mice at a mixture of ˜2.5 million CD8 and ˜33 million CD4 on day 0 (FIG. 57B). […]

[1] = system: FR+ (KB, MDA-MB-231, HOS-FRα^fLuc, THP1-FRβ) tumor cell lines; experiment: CAR-T cell exhaustion markers and target cell apoptosis in co-culture with EC17-preloaded targets; format: cell-based, human; details: EC17 pre-loading 0.1 or 10 nM, E/T 1:2, day 2
Protocol: To study CAR-T cell activation in the presence of FR+ tumor cell targets (FIGS. 53A-D), co-culture experiments were initially carried out with MDA-MB-231, THP1-FRβ and HOS-FRα. […] After 24 hours of co-culture, the surface expression of T cell activation markers CD69, CD137 (4-1BB), and PD1 were analyzed by flow cytometry. For T cell exhaustion studies (FIGS. 54A-C), FR+ (KB, MDA-MB-231, HOS-FRα^fLuc, THP1-FRβ) and FR-negative (HOS-143b^fLuc, THP1-FG12) tumor cell lines were used as targets. Here, target cells were incubated on day 0 without or with 0.1 and 10 nM of EC17 for 30 min at 37° C. and the status of EC17 “pre-loading” was assessed by counterstaining cell-surface EC17 with an anti-FITC antibody (FIG. 61A). Three days later, the surface expression of PD1, LAG3, and TIM3 inhibitor receptors on co-cultured CAR-T cells were analyzed and higher frequencies of double- and triple-positive cells were considered approaching an exhausted phenotype.
To examine antigen-dependent CAR-T cell activation, MDA-MB-231, THP1-FRβ and HOS-FRα cells were preloaded with 100 nM EC17 over 30 min. […] After 24 hours of co-culture, we measured the surface expression of T cell activation markers CD69, CD137 (4-1BB) and PD1 (FIGS. 53A-D). […] Three days later, co-cultured CAR-T cells were measured for upregulation and co-expression of T cell activation/exhaustion markers PD1, LAGS and TIM3. […]

NC1=NC2N=CC(CNc3ccc(C(=O)N[C@@H](CCC(=O)NCCNC(=S)Nc4ccc(-c5c6ccc(=O)cc-6oc6cc(O)ccc56)c(C(=O)O)c4)C(=O)O)cc3)=NC2C(=O)N1 (stereo partly drawn) [EC17, FA-(γ)-ethylenediamine-FITC]
CRS grade (0-5 scale) (HOS-FRα tumor; day 13, after EC17 500 nmol/kg on day 12): 3 grade | CRS grade (0-5 scale) (HOS-FRα tumor; days 4 and 11, after EC17 500 and 100 nmol/kg on days 3 and 10, ~35 million CAR-T cells): 1-2 grade | target cell apoptosis (Annexin V+) [1]: dose-dependent apoptosis (Annexin V+) was seen in all FR+ tumor cell lines
